The values that follow are results of earlier work, collected in patent US8293868B2 (priority 2004, dated 2012).

In the data set the test system is α-subunit of the P. americana high conductance calcium-activated potassium channel (pSlo).

Consider charybdotoxin, for which the “block of pSlo channels previously reported” value is listed as “about 80%”.
